Source: US20220133642A1, “TOPICAL FILM-FORMING SPRAY” (GRACE THERAPEUTICS INC., priority 2015, published 2022)
Structures can show the parent of a compound that is named as a salt.

Assay: Solubility study for drug saturation in spray vehicle
Format: physicochemical
Conditions: 16 mg of drug; after standing
Procedure: Solubility studies to find out concentration at which the drug is present at saturation levels were performed as follows: The drug (bupivacaine hydrochloride 2, 4, 8, 10, 12 & 16 mg) was added to, propylene glycol, oleyl alcohol and menthol in ethanol under stirring and mixing till clear solution is formed. The film-forming polymer in the clear drug solution was added while stirring till polymer dissolves or hydrates completely.

CCCCN1CCCCC1C(=O)Nc1c(C)cccc1C (stereo not shown) [bupivacaine hydrochloride]
appearance of drug solution: precipitated out from clear solution after standing
